Data set [1] concerns H. Pylori. The conditions noted are these: as a single agent; cited from earlier work.
The test system of a further data set is Campylobacter rectus. Briefly: In vitro MIC against halitosis bacteria. It counts as cell-based.
A further data set has as its system Helicobacter pylori. In words: In vitro MIC against halitosis bacteria. It counts as cell-based.
The next data set concerns Treponema denticola. In words: In vitro MIC against halitosis bacteria. It counts as cell-based.
For another data set, the system named is rat mesentery culture. Briefly: In vitro mesentery culture model, wound closure. It counts as cell-based. Particulars: for concentrations of growth factors EGF and FGF: 10 mcg/mL to 1,000 mcg/mL in medium with 2% fetal calf serum; for wound closure rate: 10 mcg/mL to 1,000 mcg/mL, 24-hour, 48-hour and 72-hour, compared to the placebo. An excerpt: This tissue culture model is useful for gaining insights into growth factor interactions and wound healing.

A short description of data set [2]: Diabetic mouse wound healing model. It counts as in vivo. Particulars: 10 mcg/mL to 1,000 mcg/mL; compared to placebo treated wound. The procedure:
Further, wound healing potential of the above bismuth compounds is evaluated using a diabetic mouse wound healing model (Matuszewska et al., Pharmaceutical Research 11(1):65-71 (1994), incorporated herein by reference).

Data set [3] in a line: Freeze-injured skin graft model. It counts as in vivo. Particulars: 10 to 1000 mcg/mL; compared to placebo.
The conditions of data set [4]: four hour exposure; 0.5% in artificial saliva; mild agitation. An excerpt:
Artificial saliva was used (Table 9). Table 9 THECOMPOSITION OF ARTIFICIAL SALIVA
Table 10 DENTURE MATERIALS

For data set [5], the system named is H. Pylori. The conditions noted are these: against H. Pylori; cited from earlier work.
The conditions of data set [6]: of the 13 adverse reaction forms, 1978 to 1986; cited from earlier work.

As for `Cc1ncc([N+](=O)[O-])n1CCO` [metronidazole], in the data set with H. Pylori [1], the “eradication rate for H. Pylori” value is on record as 5%.
The MIC is the smallest concentration in the dilution series that meets the test's criterion for growth inhibition. Low readings indicate a more susceptible organism, high ones a less susceptible organism. As for Bismuth Ascorbyl Sulfate, the minimum inhibitory concentration (MIC) worked out at 256 µg/mL against Campylobacter rectus, 8 µg/mL against Helicobacter pylori and 16 µg/mL against Treponema denticola. Further, the “concentrations of growth factors EGF and FGF” value in the data set on rat mesentery culture is given as “Significantly higher”. Besides, in the data set with rat mesentery culture, the wound closure rate entry was “significantly faster wound closure rate and complete closure”. In addition, the wound healing entry in data set [2] was “heal faster”. Also, the “wound healing in cryoinjured grafts” value in data set [3] is given as “stimulates wound healing in cryoinjured grafts in a dose-related fashion”.
Bismuth Sucrose Sulfate: the results for the MIC against Campylobacter rectus, with Helicobacter pylori and against Treponema denticola were over 256 µg/mL, 16 µg/mL and 32 µg/mL, respectively.
Take colloidal bismuth subcitrate [CBS]: the “staining, discoloration, or changes in texture of natural tooth and other denture materials” value in [4] is given as “did not cause any staining, discoloration, or changes in texture”. In the data set on Campylobacter rectus, the minimal inhibitory concentration (MIC) came to 256 µg/mL. The minimum inhibitory concentration (MIC) against Helicobacter pylori is given as 2 µg/mL. The minimum inhibitory concentration (MIC) against Treponema denticola was found to be 32 µg/mL. In the data set with rat mesentery culture, the “concentrations of growth factors EGF and FGF” value is reported as “Significantly higher”; the wound closure rate result is “significantly faster wound closure rate and complete closure”. For the same compound, in data set [2], the wound healing result is “heal faster”. In [3], the “wound healing in cryoinjured grafts” value is listed as “stimulates wound healing in cryoinjured grafts in a dose-related fashion”. For the same compound, in the data set on H. Pylori [5], the MIC range is 4 to 32 µg/mL and the “minimum inhibitory concentration (MIC)” value was 8 µg/mL. In data set [6], the “adverse reactions ascribed to CBS” value is “Five”.
